Among the data in patent US10610520B2, “Heterocyclic compound” (Takeda Pharmaceutical Company Limited, priority 2016, dated 2020) are inhibition values, retold here.

In the assay the target is T1, His-hMAGL (recombinant polyhistidine tagged human MAGL protein) (Homo sapiens, UniProt Q99685).
T1 construct: made in house; host or cells: E. coli BL21(DE3)
T1 sequence (Q99685 1-303): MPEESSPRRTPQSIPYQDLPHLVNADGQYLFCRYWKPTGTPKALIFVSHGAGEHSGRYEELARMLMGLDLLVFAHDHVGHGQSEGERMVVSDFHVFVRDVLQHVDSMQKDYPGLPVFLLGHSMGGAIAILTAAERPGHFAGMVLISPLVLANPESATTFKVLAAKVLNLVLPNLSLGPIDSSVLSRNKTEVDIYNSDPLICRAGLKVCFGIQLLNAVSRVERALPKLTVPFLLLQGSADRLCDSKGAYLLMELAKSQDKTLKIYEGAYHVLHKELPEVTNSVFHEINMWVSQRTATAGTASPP
Description: Measurement of MAGL inhibitory activity (arachidonic acid production from 2-arachidonylglycerol, RapidFire-mass spectrometry). Type of assay: biochemical. Conditions: MAGL inhibitory rate, test compound 10 μM, 60 min preincubation, 2-arachidonylglycerol substrate. The essentials:
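Arachidonic acid formed was quantified by online solid-phase extraction and triple-quadrupole MS in negative SRM mode against a d8 internal standard. Reaction: recombinant His-hMAGL (7.5 ng/mL, pH 7.5 Tris buffer with Triton X-100 and BSA) plus 2-AG (5 μL of 150 μM stock) for 10 min at room temperature, quenched with 2% formic acid. Percent inhibition corrected for enzyme-free background.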

In general, inhibition refers to the change of the read-out against control, counted positive when it falls. Consider `O=C1CCC2(CN(C(=O)c3sc4cc(-c5ccc(C(F)F)cc5)ccc4c3Cl)C2)N1` [Example 219, 2-((3-chloro-6-(4-(difluoromethyl)phenyl)-1-benzothiophen-2-yl)carbonyl)-2,5-diazaspiro[3.4]octan-6-one], for which the inhibition at 10 µM worked out at 94%.
For `O=C1CCC2(CN(C(=O)c3sc4cc(-c5cccc(F)c5Cl)ccc4c3Cl)C2)N1` [Example 220, 2-((3-chloro-6-(2-chloro-3-fluorophenyl)-1-benzothiophen-2-yl)carbonyl)-2,5-diazaspiro[3.4]octan-6-one] the value was 100%; for `O=C1CCC2(CN(C(=O)c3sc4cc(-c5c(F)cccc5Cl)ccc4c3Cl)C2)N1` [Example 221, 2-((3-chloro-6-(2-chloro-6-fluorophenyl)-1-benzothiophen-2-yl)carbonyl)-2,5-diazaspiro[3.4]octan-6-one], 100%.
The same measure for `O=C1CCC2(CN(C(=O)c3sc4cc(-c5cc(Cl)ccc5F)ccc4c3Cl)C2)N1` [Example 222, 2-((3-chloro-6-(5-chloro-2-fluorophenyl)-1-benzothiophen-2-yl)carbonyl)-2,5-diazaspiro[3.4]octan-6-one]: 99%.
For `O=C1CCC2(CN(C(=O)c3sc4cc(-c5cc(F)ccc5Cl)ccc4c3Cl)C2)N1` [Example 223, 2-((3-chloro-6-(2-chloro-5-fluorophenyl)-1-benzothiophen-2-yl)carbonyl)-2,5-diaspiro[3.4]octan-6-one] the value was 100%.
Consider `O=C1CCC2(CN(C(=O)c3sc4cc(-c5ccc(F)cc5Cl)ccc4c3Cl)C2)N1` [Example 224, 2-((3-chloro-6-(2-chloro-4-fluorophenyl)-1-benzothiophen-2-yl)carbonyl)-2,5-diazaspiro[3.4]octan-6-one], for which the inhibition at 10 µM was 100%.
For `O=C1CCC2(CN(C(=O)c3sc4cc(-c5ccc(Cl)cc5F)ccc4c3Cl)C2)N1` [Example 225, 2-((3-chloro-6-(4-chloro-2-fluorophenyl)-1-benzothiophen-2-yl)carbonyl)-2,5-diazaspiro[3.4]octan-6-one] the value was 99%; for `O=C1CCC2(CN(C(=O)c3sc4cc(-c5ccc(F)c(Cl)c5)ccc4c3Cl)C2)N1` [Example 226, 2-((3-chloro-6-(3-chloro-4-fluorophenyl)-1-benzothiophen-2-yl)carbonyl)-2,5-diazaspiro[3.4]octan-6-one], 99%.
As for `Cc1ccc(-c2ccc3c(Cl)c(C(=O)N4CC5(CCC(=O)N5)C4)sc3c2)cn1` [Example 227, 2-((3-chloro-6-(6-methylpyridin-3-yl)-1-benzothiophen-2-yl)carbonyl)-2,5-diazaspiro[3.4]octan-6-one], the inhibition at 10 µM turned out to be 99%.
The same measure for `O=C1CCC2(CN(C(=O)c3sc4cc(-c5ccc(C(F)(F)F)nc5)ccc4c3Cl)C2)N1` [Example 228, 2-((3-chloro-6-(6-(trifluoromethyl)pyridin-3-yl)-1-benzothiophen-2-yl)carbonyl)-2,5-diazaspiro[3.4]octan-6-one]: 87%.
For `Cc1ncccc1-c1ccc2c(Cl)c(C(=O)N3CC4(CCC(=O)N4)C3)sc2c1` [Example 229, 2-((3-chloro-6-(2-methylpyridin-3-yl)-1-benzothiophen-2-yl)carbonyl)-2,5-diazaspiro[3.4]octan-6-one], the inhibition at 10 µM is 100%.
`O=C1CCC2(CN(C(=O)c3sc4cc(-c5cccnc5C(F)(F)F)ccc4c3Cl)C2)N1` [Example 230, 2-((3-chloro-6-(2-(trifluoromethyl)pyridin-3-yl)-1-benzothiophen-2-yl)carbonyl)-2,5-diazaspiro[3.4]octan-6-one]: the inhibition at 10 µM came out at 100%.
On to `O=C1CCC2(CN(C(=O)c3sc4cc(-c5cnc(C(F)(F)F)nc5)ccc4c3Cl)C2)N1` [Example 231, 2-((3-chloro-6-(2-(trifluoromethyl)pyrimidin-5-yl)-1-benzothiophen-2-yl)carbonyl)-2,5-diazaspiro[3.4]octan-6-one], for which the inhibition at 10 µM worked out at 97%.
With `Cc1ccc(-c2ccc3c(Cl)c(C(=O)N4CC5(CCC(=O)N5)C4)sc3c2)s1` [Example 232, 2-((3-chloro-6-(5-methyl-2-thienyl)-1-benzothiophen-2-yl)carbonyl)-2,5-diazaspiro[3.4]octan-6-one], the inhibition at 10 µM worked out at 99%.
For `Cc1cc(-c2ccc3c(Cl)c(C(=O)N4CC5(CCC(=O)N5)C4)sc3c2)c(C)s1` [Example 233, 2-((3-chloro-6-(2,5-dimethyl-3-thienyl)-1-benzothiophen-2-yl)carbonyl)-2,5-diazaspiro[3.4]octan-6-one] the value was 101%; for `Cc1sccc1-c1ccc2c(Cl)c(C(=O)N3CC4(CCC(=O)N4)C3)sc2c1` [Example 234, 2-((3-chloro-6-(2-methyl-3-thienyl)-1-benzothiophen-2-yl)carbonyl)-2,5-diazaspiro[3.4]octan-6-one], 101%; for `Cc1ccsc1-c1ccc2c(Cl)c(C(=O)N3CC4(CCC(=O)N4)C3)sc2c1` [Example 235, 2-((3-chloro-6-(3-methyl-2-thienyl)-1-benozthiophen-2-yl)carbonyl)-2,5-diazaspiro[3.4]octan-6-one], 100%.
With `Cc1cscc1-c1ccc2c(Cl)c(C(=O)N3CC4(CCC(=O)N4)C3)sc2c1` [Example 236, 2-((3-chloro-6-(4-methyl-3-thienyl)-1-benzothiophen-2-yl)carbonyl)-2,5-diazaspiro[3.4]octan-6-one], the inhibition at 10 µM stood at 100%.
For `O=C1CCC2(CN(C(=O)N3CCC(C(F)(c4ccccc4)c4ccccc4)CC3)C2)N1` [Example 237, 2-((4-(fluoro(diphenyl)methyl)piperidin-1-yl)carbonyl)-2,5-diazaspiro[3.4]octan-6-one] the value was 101%.
For `O=C1CCC2(CN(C(=O)c3sc4cc(C(F)(F)F)ccc4c3F)C2)N1` [Example 238, 2-((3-fluoro-6-(trifluoromethyl)-1-benzothiophen-2-yl)carbonyl)-2,5-diazaspiro[3.4]octan-6-one] the value was 97%; for `O=C1CCC2(CN(C(=O)N3CCC(COc4ccc5c(c4)CCCC5)CC3)C2)N1` [Example 239, 2-((4-((5,6,7,8-tetrahydronaphthalen-2-yloxy)methyl)piperidin-1-yl)carbonyl)-2,5-diazaspiro[3.4]octan-6-one], 101%; for `O=C1NC2(CO1)CN(C(=O)N1CCC(COc3ccc(F)cc3Cl)CC1)C2` [Example 240, 2-((4-((2-chloro-4-fluorophenoxy)methyl)piperidin-1-yl)carbonyl)-7-oxa-2,5-diazaspiro[3.4]octan-6-one], 100%.
As to `O=C1NC2(CO1)CN(C(=O)c1sc3cc(C(F)(F)F)ccc3c1Cl)C2` [Example 241, 2-((3-chloro-6-(trifluoromethyl)-1-benzothiophen-2-yl)carbonyl)-7-oxa-2,5-diazaspiro[3.4]octan-6-one], the inhibition at 10 µM is 101%.
For `O=C1COCC2(CN(C(=O)c3sc4cc(C(F)(F)F)ccc4c3Cl)C2)N1` [Example 242, 2-((3-chloro-6-(trifluoromethyl)-1-benzothiophen-2-yl)carbonyl)-8-oxa-2,5-diazaspiro[3.5]nonan-6-one] the value was 99%.
